These results are taken from ChEMBL document CHEMBL5344405, “Seleno-vs. thioether triazine derivatives in search for new anticancer agents overcoming multidrug resistance in lymphoma” (Eur J Med Chem, 2022).

One may read the IC50 as the concentration at which inhibition is half-maximal.

Calls of active or inactive are those of the source. No cut-off for these calls is given here.

Series [1] relates to L5178Y. Put plainly: Cytotoxicity against parental mouse L5178Y cells assessed as inhibition of cell growth incubated for 24 hrs by MTT assay. In kind it is functional, cell-based. In general terms: Tetrazolium dyes change colour on reduction, which living cells bring about.
Series [2] relates to L5178Y. Put plainly: Cytotoxicity against multidrug resistant mouse L5178Y cells expressing ABCB1 assessed as inhibition of cell growth incubated for 24 hrs by MTT assay. Format: functional, cell-based.
The test system of series [3] is L5178Y. Put plainly: Antiproliferative activity against parental mouse L5178Y cells assessed as inhibition of cell growth incubated for 72 hrs by MTT assay. In kind it is functional, cell-based.
Series [4] relates to L5178Y. Put plainly: Antiproliferative activity against multidrug resistant mouse L5178Y cells expressing ABCB1 assessed as inhibition of cell growth incubated for 72 hrs by MTT assay. In kind it is functional, cell-based.
A short description of series [5]: Selectivity index, ratio of IC50 for parental mouse L5178Y cells to IC50 for multidrug resistant mouse L5178Y cells expressing ABCB1. In kind it is functional.
Series [6] has as its system L5178Y. Put plainly: Synergistic antiproliferative activity against multidrug resistant mouse L5178Y cells expressing ABCB1 assessed as combination index at 200 uM incubated for 72 hrs in presence of doxorubicin at 17.242 uM by checkerboard assay. Format: functional.
Series [7] is described as follows: Cytotoxicity against human HuT 102 cells assessed as inhibition of cell growth incubated for 72 hrs by MTS assay. In kind it is functional, cell-based. Conditions: HuT-102, 72 h.
The nature of series [8]: Cytotoxicity against human skin fibroblast cells assessed as inhibition of cell growth incubated for 72 hrs by MTS assay. In kind it is toxicity, cell-based.
Series [9] has as its system Jurkat. Put plainly: Induction of cell cycle arrest in human Jurkat cells assessed as reduction in cyclin D1 gene expression at 50 uM incubated for 24 hrs by qPCR analysis. In kind it is functional, cell-based. For orientation: Quantitative PCR measures a nucleic acid by following its amplification.
For series [10], the system named is Jurkat. The series is described as follows: Induction of cell cycle arrest in human Jurkat cells assessed as reduction in cyclin E1 gene expression at 50 uM incubated for 24 hrs by qPCR analysis. Format: functional, cell-based.
In series [11] the test system is Jurkat. Put plainly: Induction of cell cycle arrest in human Jurkat cells assessed as increase in p21 gene expression at 50 uM incubated for 24 hrs by qPCR analysis. In kind it is functional, cell-based.
Series [12] relates to Jurkat. Put plainly: Synergistic induction of cell cycle arrest in human Jurkat cells assessed as reduction in cyclin D1 gene expression at 50 uM incubated for 24 hrs in presence of doxorubicin at 50 nM by qPCR analysis. Format: functional, cell-based.
Series [13] deals with Jurkat. Put plainly: Synergistic induction of cell cycle arrest in human Jurkat cells assessed as increase in p53 gene expression at 50 uM incubated for 24 hrs in presence of doxorubicin at 50 nM by qPCR analysis. In kind it is functional, cell-based.
The subject of series [14] is Jurkat. The series is described as follows: Synergistic induction of cell cycle arrest in human Jurkat cells assessed as increase in p21 gene expression at 50 uM incubated for 24 hrs in presence of doxorubicin at 50 nM by qPCR analysis. Format: functional, cell-based.
Series [15] is described as follows: Upregulation of ABCB1 gene expression in human SH-SY5Y cells at 20 uM incubated for 96 hrs by RT-PCR analysis. In kind it is toxicity, cell-based.
Series [16] in a line: Upregulation of ABCC1 gene expression in human SH-SY5Y cells at 20 uM incubated for 96 hrs by RT-PCR analysis. Format: toxicity, cell-based.
Series [17] in a line: Upregulation of ABCG2 gene expression in human SH-SY5Y cells at 20 uM incubated for 96 hrs by RT-PCR analysis. In kind it is toxicity, cell-based.
The subject of series [18] is L5178Y. Put plainly: Synergistic antiproliferative activity against multidrug resistant mouse L5178Y cells expressing ABCB1 assessed as combination index at 60 uM incubated for 72 hrs in presence of doxorubicin at 17.242 uM by checkerboard assay. In kind it is functional.
Series [19] deals with Jurkat. The series is described as follows: Induction of cell cycle arrest in human Jurkat cells assessed as increase in p53 transcription at 50 uM incubated for 24 hrs by qPCR analysis. In kind it is functional, cell-based.
For series [20], the system named is Jurkat. The series is described as follows: Induction of cell cycle arrest in human Jurkat cells assessed as increase in p21 transcription at 50 uM incubated for 24 hrs by qPCR analysis. Format: functional, cell-based.
Series [21] deals with Jurkat. The series is described as follows: Synergistic induction of cell cycle arrest in human Jurkat cells assessed as reduction in cyclin E1 gene expression at 50 uM incubated for 24 hrs in presence of doxorubicin at 50 nM by qPCR analysis. In kind it is functional, cell-based.

As for `CCCC([Se]c1ccccc1)c1nc(N)nc(N2CCN(C)CC2)n1.Cl` (configuration not stated), the IC50 in series [1] stood at 38.6 µM; in series [2] it was 76.8 µM; in series [3], 14.4 µM; in [4] it was 6.03 µM; in [7] it was 54.3 µM. The “Ratio IC50” value in series [5] is listed as greater than 2. Moreover, the CI in series [6] is 0.092. Moreover, the IC50 at 72 h in series [8] is greater than 100 µM. Also, the outcome in series [9], in [10], in series [11], in [12], in series [13] and in series [14] was Active.
As for `CN1CCN(c2nc(N)nc(CCCSc3ccc4ccccc4c3)n2)CC1.Cl`, the Activity entry in series [15], in series [16] and in series [17] was “Toxic” each time. The IC50 amounted to 11.4 µM in series [1]; 16.7 µM in [2]; 6.71 µM in series [3]; 5.35 µM in series [4]; 19.7 µM in [7]. The CI in [18] stood at 0.18. Besides, the IC50 at 72 h in series [8] was 79.1 µM. For the same compound, the result in series [9], in series [10], in series [19], in series [20], in series [12] and in [21] was Active. Further, the result in series [13] and in series [14] was Active.
